Target: T1, STK25 (YSK1) (Homo sapiens, UniProt O00506)
T1 construct: purchased Thermo Fisher Scientific (Life Technologies) SelectScreen
Experiment: SelectScreen Z'LYTE
Assay type: biochemical
How it was run: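 NU5455 was profiled across the SelectScreen Broad panel of kinase activity and binding assays. Z'LYTE reactions such as CSF1R ran at apparent Km ATP, while the Adapta CAMK1 assay used ATP listed as 10. Values are given as percent.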

T1 sequence (O00506 whole entry): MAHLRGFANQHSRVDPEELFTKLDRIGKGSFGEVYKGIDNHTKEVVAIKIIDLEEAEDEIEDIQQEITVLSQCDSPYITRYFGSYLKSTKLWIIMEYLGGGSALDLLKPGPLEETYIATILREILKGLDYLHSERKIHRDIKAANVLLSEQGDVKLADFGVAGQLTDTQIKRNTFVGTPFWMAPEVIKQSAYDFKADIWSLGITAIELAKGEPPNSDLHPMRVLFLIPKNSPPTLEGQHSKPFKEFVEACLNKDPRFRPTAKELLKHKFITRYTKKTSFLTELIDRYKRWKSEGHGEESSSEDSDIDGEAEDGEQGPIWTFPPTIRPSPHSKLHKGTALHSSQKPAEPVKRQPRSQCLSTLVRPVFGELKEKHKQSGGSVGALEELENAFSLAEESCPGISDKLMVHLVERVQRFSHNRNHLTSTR

CN(C(=O)CN1CCOCC1)c1ccc2sc3c(-c4cccc5c(=O)cc(N6CC7CCC(C6)O7)oc45)cccc3c2c1 [NU5455]
inhibition at 1 µM: -11.4%
